Experimental findings from paper PMC9865890, “N-Derivatives of (Z)-Methyl 3-(4-Oxo-2-thioxothiazolidin-5-ylidene)methyl)-1H-indole-2-carboxylates as Antimicrobial Agents—In Silico and In Vitro Evaluation” (Pharmaceuticals, 2023) are described below.

Holding throughout (format): cell-based
Test [1] relates to Salmonella typhimurium (ATCC 13311). Description: Antibacterial microdilution (MIC/MBC). The conditions noted are these: Salmonella enterica, S.t. (S. typhimurium); for MIC: read-out: MIC. How it is done:
(§1) The synthesized compounds (Table 1) were evaluated for their antibacterial activity against a panel of eight species using a microdilution method with ampicillin and streptomycin as reference drugs. […] The order of activity can be presented as: 8 > 11 > 2 > 1 > 12 > 3 > 17 > 7 > 5 > 13 > 14 > 16 > 9 > 4 = 6 > 15 > 10. […] Cloacae. […] The most sensitive bacteria appeared to be En. cloacae, while E. coli was the most resistant one, followed by M. flavus.
(§2) The following Gram-negative bacteria: Escherichia coli (ATCC 35210), Enterobacter cloacae (clinical isolate), Salmonella typhimurium (ATCC 13311), as well as Gram-positive bacteria: Listeria monocytogenes (NCTC 7973), Bacillus cereus (clinical isolate), and Staphylococcus aureus (ATCC 6538) were used. The organisms were obtained from the Mycological Laboratory, Department of Plant Physiology, Institute for Biological Research “Siniša Stankovic”, Belgrade, Serbia. The minimum inhibitory (MIC) and minimum bactericidal (MBC) concentrations were determined by the modified microdilution method, as previously reported.
In general terms: In broth dilution the organism is exposed to a series of concentrations in liquid medium.

Test [2] deals with Staphylococcus aureus (ATCC 6538). Description: Antibacterial microdilution (MIC/MBC). The note with it: Staphylococcus aureus, ATCC6538, S.a. (S. aureus); for MIC: read-out: MIC. How it is done: as §1, §2
Test [3] deals with Escherichia coli (ATCC 35210). Description: Antibacterial microdilution (MIC/MBC). The conditions noted are these: Escherichia coli, ATCC35210, E. coli; for MIC: read-out: MIC. The protocol:
as §1, §2

In test [4] the test system is Listeria monocytogenes (NCTC 7973). Put plainly: Antibacterial microdilution (MIC/MBC). The conditions noted are these: L.m. (L. monocytogenes). How it is done: as §1, §2
The test system of test [5] is Enterobacter cloacae (clinical isolate). Description: Antibacterial microdilution (MIC/MBC). The conditions noted are these: En.cl (En. cloacae). How it is done: as §1, §2
A further test concerns P. aeruginosa. Description: Antibacterial microdilution (MIC/MBC). The conditions noted are these: Pseudomonas aeruginosa, P.a. (P. aeruginosa); for MIC: read-out: MIC. The protocol: as §1, §2
The subject of test [6] is Bacillus cereus (clinical isolate). Description: Antibacterial microdilution (MIC/MBC). The conditions noted are these: Bacillus cereus, B.c. (B. cereus); for MIC: read-out: MIC. The protocol: as §1, §2
Another test has as its system M. flavus. Description: Antibacterial microdilution (MIC/MBC). The conditions noted are these: Micrococcus flavus; M.f. (M. flavus). How it is done:
as §1, §2

In test [7] the test system is Penicillium verrucosum var. cyclopium (food isolate). Description: Antifungal bioassay (MIC/MFC). How it is done: For the antifungal bioassays, six fungi were used: Aspergillus niger (ATCC 6275), Aspergillus fumigatus (ATCC 1022), Aspergillus versicolor (ATCC 11730), Penicillium funiculosum (ATCC 36839), Trichoderma viride (IAM 5061), and Penicillium verrucosum var. cyclopium (food isolate). The organisms were obtained from the Mycological Laboratory, Department of Plant Physiology, Institute for Biological Research “Siniša Stankovic”, Belgrade, Serbia. All experiments were performed in duplicate.

For test [8], the system named is Aspergillus fumigatus (ATCC 1022). Put plainly: Antifungal bioassay (MIC/MFC). The note with it: ATCC1022, A.f. (A. fumigatus). The protocol:
(§3) For the antifungal bioassays, six fungi were used: […] The organisms were obtained from the Mycological Laboratory, Department of Plant Physiology, Institute for Biological Research “Siniša Stankovic”, Belgrade, Serbia. All experiments were performed in duplicate.

The subject of test [9] is Penicillium funiculosum (ATCC 36839). Description: Antifungal bioassay (MIC/MFC). The conditions noted are these: Talaromyces funiculosus, ATCC36839; P.f. (P. funiculosum). How it is done: as §3
The subject of test [10] is Aspergillus niger (ATCC 6275). Put plainly: Antifungal bioassay (MIC/MFC). The note with it: ATCC6275, A.n. (A. niger). The protocol:
as §3

Another test has as its system P. ochrochloron. Put plainly: Antifungal bioassay (MIC/MFC). The conditions noted are these: Penicillium ochrochloron; for MFC: P.o. (P. ochrochloron); for MIC: P.o. (P. ochrochloron; text: P. ochramensis), read-out: MIC. How it is done: as §3
The test system of test [11] is Aspergillus versicolor (ATCC 11730). Description: Antifungal bioassay (MIC/MFC). The note with it: ATCC11730, A.v. (A. versicolor). The protocol:
as §3

A further test deals with A. ochraceus. Description: Antifungal bioassay (MIC/MFC). The note with it: Aspergillus ochraceus, A.o. (A. ochraceus); for MIC: read-out: MIC. The protocol: as §3
Test [12] has as its system Trichoderma viride (IAM 5061). Description: Antifungal bioassay (MIC/MFC). The conditions noted are these: Trichoderma viride, IAM5061, T.v. (T. viride). The protocol: as §3
Setting [13] is: Listeria monocytogenes, NCTC7973.
Setting [14] is: Listeria monocytogenes, NCTC7973, read-out: MIC.
Where [15] appears, read: Enterobacter cloacae, read-out: MIC.

Each structure is given as a SMILES string. Values after ≈ are worked out from the molar mass of the structure shown. Read-outs that look alike come from different tables or passages of the source.

In general, MBC refers to the lowest tested concentration that kills the bacteria rather than only halting them. Usually MIC stands for the lowest concentration that inhibits growth of the organism. For `CC1(C)S[C@@H]2[C@H](NC(=O)[C@H](N)c3ccccc3)C(=O)N2[C@H]1C(=O)O` [Ampicillin, reference compound], the minimal bactericidal concentration (MBC) in test [1] is 200 ± 9 µg/mL (≈ 572 µM); in test [2] it was 150 ± 50 µg/mL (≈ 429 µM); in test [3] it was 200 µg/mL (≈ 572 µM); in test [4] (setting [13]), 300 ± 30 µg/mL (≈ 859 µM); in [5] (Enterobacter cloacae), 500 ± 100 µg/mL (≈ 1430 µM); with P. aeruginosa, 500 ± 100 µg/mL (≈ 1430 µM). The values for the minimal bactericidal concentration (MBC) (in test [6]; with M. flavus) were 25 µg/mL (≈ 71.5 µM) and 500 ± 100 µg/mL (≈ 1430 µM), respectively. Further, the MIC in test [1] amounted to 150 ± 30 µg/mL (≈ 429 µM); in [2], 100 ± 50 µg/mL (≈ 286 µM); in [3] it was 100 ± 50 µg/mL (≈ 286 µM); in test [4] (setting [14]), 150 ± 30 µg/mL (≈ 429 µM); in [5] (setting [15]), 250 ± 90 µg/mL (≈ 715 µM); in the test with P. aeruginosa, 300 ± 30 µg/mL (≈ 859 µM). The figures for the minimal inhibitory concentration (MIC) (in [6]; in the test with M. flavus) were 6 ± 3 µg/mL (≈ 17.2 µM) and 250 ± 90 µg/mL (≈ 715 µM), respectively.
What is called MFC is the smallest concentration meeting the test's criterion for killing the fungus. For `COC(=O)c1[nH]c2ccc(F)cc2c1/C=C1\SC(=S)N(C(C(=O)O)C(C)C)C1=O` (stereo not shown) [Compound 8, (Z)-2-(5-((5-fluoro-2-(methoxycarbonyl)-1H-indol-3-yl)methylene)-4-oxo-2-thioxothiazolidin-3-yl)-3-methylbutanoic acid], the minimal fungicidal concentration (MFC) in test [7] was 120 ± 40 µg/mL (≈ 275 µM); in [8], 120 ± 40 µg/mL (≈ 275 µM); in test [9], 30 ± 10 µg/mL (≈ 68.7 µM); in test [10] it was 30 ± 10 µg/mL (≈ 68.7 µM); in the test with P. ochrochloron it was 30 ± 10 µg/mL (≈ 68.7 µM); in test [11], 30 ± 10 µg/mL (≈ 68.7 µM). In the test on A. ochraceus, this compound came in with an MFC of 15 ± 3 µg/mL (≈ 34.4 µM). Also, the MIC was found to be 60 ± 6 µg/mL (≈ 137 µM) in test [7]; 8 ± 9 µg/mL (≈ 18.3 µM) in [1]; 30 ± 10 µg/mL (≈ 68.7 µM) in test [2]; 8 ± 1 µg/mL (≈ 18.3 µM) in [3]; 15 ± 1 µg/mL (≈ 34.4 µM) in [4]; 15 µg/mL (≈ 34.4 µM) in test [4] (setting [14]). The MIC in [5] came to 4 ± 5 µg/mL (≈ 9.16 µM); in [5] (setting [15]), 4 µg/mL (≈ 9.16 µM); with P. aeruginosa, 4 ± 5 µg/mL (≈ 9.16 µM); in test [6], 30 ± 10 µg/mL (≈ 68.7 µM); against M. flavus it was 30 ± 10 µg/mL (≈ 68.7 µM); in [8], 60 ± 6 µg/mL (≈ 137 µM). For the same compound, the minimal inhibitory concentration (MIC) was 15 ± 3 µg/mL (≈ 34.4 µM) in test [9]; 15 ± 3 µg/mL (≈ 34.4 µM) in test [10]; 15 ± 3 µg/mL (≈ 34.4 µM) with P. ochrochloron; 15 ± 3 µg/mL (≈ 34.4 µM) in [11]; 8 ± 0.6 µg/mL (≈ 18.3 µM) with A. ochraceus. The minimal bactericidal concentration (MBC) in test [1] was 15 ± 9 µg/mL (≈ 34.4 µM); in test [2], 60 ± 6 µg/mL (≈ 137 µM); in [3] it was 15 ± 9 µg/mL (≈ 34.4 µM); in test [4] (setting [13]), 30 ± 10 µg/mL (≈ 68.7 µM); in test [5] (Enterobacter cloacae) it was 8 ± 0.6 µg/mL (≈ 18.3 µM); in the test on P. aeruginosa it was 8 ± 0.6 µg/mL (≈ 18.3 µM). Besides, the minimum bactericidal concentration (MBC) (in [6]; with M. flavus) was 60 ± 6 µg/mL (≈ 137 µM) each time.
As for `c1ccc(-c2ccc(C(c3ccccc3)n3ccnc3)cc2)cc1` (stereo not shown) [Bifonazole, reference compound], the minimum fungicidal concentration (MFC) in [7] (P.v.c. (P. cyclpoium var verucosum), read-out: MFC) was 200 ± 10 µg/mL (≈ 644 µM); in [8] it was 200 ± 10 µg/mL (≈ 644 µM); in test [9] it was 250 ± 50 µg/mL (≈ 805 µM); in test [10], 200 ± 10 µg/mL (≈ 644 µM); in the test on P. ochrochloron, 250 ± 50 µg/mL (≈ 805 µM); in test [11], 200 ± 10 µg/mL (≈ 644 µM). Also, the MFC (in the test with A. ochraceus; in [12]) was 200 ± 10 µg/mL (≈ 644 µM) each time. The minimum inhibitory concentration (MIC) in test [7] (P.v.c. (P. cyclpoium var verucosum), read-out: MIC) was 100 ± 9 µg/mL (≈ 322 µM); in [8] it was 150 ± 50 µg/mL (≈ 483 µM); in [9], 200 ± 10 µg/mL (≈ 644 µM); in [10], 150 ± 50 µg/mL (≈ 483 µM); in the test with P. ochrochloron, 200 ± 10 µg/mL (≈ 644 µM); in test [11], 100 ± 2 µg/mL (≈ 322 µM). Besides, the MIC (with A. ochraceus; in test [12] (read-out: MIC)) was 150 ± 50 µg/mL (≈ 483 µM) throughout.
